Patent US11293023B2, “Tunable endogenous protein degradation” (Dana-Farber Cancer Institute, Inc., priority 2015, dated 2022)

Target: T1, FKBP12WT (Homo sapiens, UniProt P62942)
T1 construct: expressed in transfected cells; host or cells: 293FT cells (CRBN-WT or CRBN-/-)
Test: Immunoblot of wild type FKBP12 in 293FT cells (selectivity control)
Format: cell-based
Conditions: 293FT CRBN-WT or CRBN−/−, indicated concentrations, 4 hours
Protocol: 293FT cells (CRBN-WT or CRBN−/−) expressing either HA-tagged FKBP12WT or FKBP* were treated with indicated concentrations of dFKBP7 for 4 hours.
Isogenic 293FT cells (CRBN-WT or CRBN−/−) expressing either FKBP12WT or FKBP* were treated with 100 nM of either dFKBP7 or dFKBP13 for 4 hours.
The dTAG is predicated on the selectivity of FKBP* specific ligands over endogenous, wild type FKBP. […] 293FT cells (CRBN-WT or CRBN−/−) expressing either HA-tagged FKBP12WT or FKBP* were treated with indicated concentrations of dFKBP7 for 4 hours.
Isogenic 293FT cells (CRBN-WT or CRBN−/−) were engineered to expressed either FKBP12WT or FKBP*. Cells were treated with 100 nM of either dFKBP7 or dFKBP13 for 4 hours before lysates were prepared for western immunoblot analysis.

T1 sequence (P62942 whole entry): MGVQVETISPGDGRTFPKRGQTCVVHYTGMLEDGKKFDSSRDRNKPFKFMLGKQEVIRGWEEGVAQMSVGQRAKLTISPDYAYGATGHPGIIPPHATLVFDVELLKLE

`CC[C@H](C(=O)N1CCCC[C@H]1C(=O)O[C@H](CCc1ccc(OC)c(OC)c1)c1cccc(OCC(=O)NCCCOCCOCCOCCCNC(=O)COc2cccc3c2C(=O)N(C2CCC(=O)NC2=O)C3=O)c1)c1cc(OC)c(OC)c(OC)c1` (stereo partly shown) [dFKBP7] was tested, and the “degradation of HA-tagged FKBP12WT” value was “not FKBPWT”.
